How the values were obtained:
HIV-1 protease = HIV-1 protease (Human immunodeficiency virus type 1 group M subtype B, UniProt P04585); assay: Fluorescence HIV-1 Protease Inhibitor Assay (Pandex); assay type: biochemical; parameters: made in house; host or cells: E. coli K12 L507/pHP10D (NRRL B-18560); conditions: normalized to positive control (=1.0); * = a calculated average; read-out: Fluorescence Assay IC50 in ng/mL (converted)

Compound	melting point	IC50 (HIV-1 protease)
CN1CCc2c(cccc2C(=O)N[C@@H](CSc2ccc3ccccc3c2)[C@H](O)Cc2ccccc2C(=O)NC(C)(C)C)C1 (relative stereo) [Example 59, [2′R-(2′R*,3′S*)]-N-t-Butyl-2-[2′-hydroxy-3′-naphth-2-ylthiomethyl-4′-aza-5′-oxo-5′-[2-N′(methyl)-1″,2″,3″,4″-tetrahydroisoquinolin-5″-yl)pentyl] benzamide]	110 to 113 °C	587 nM
CC(C)(C)NC(=O)c1ccccc1C[C@@H](O)[C@@H](CSc1ccc2ccccc2c1)NC(=O)c1cccc2c1CCN2 [Example 65, [2′R-(2′R*,3′S*)]-N-t-Butyl-2-[2′-hydroxy-3′-naphth-2-ylthiomethyl-4′-aza-5′-oxo-5′-(indolin-4″-yl)pentyl] benzamide]	83 to 84 °C	687 nM
CC(C)(C)NC(=O)c1ccccc1CC(O)C(CSc1ccc2ccccc2c1)NC(=O)c1cccc(N)c1 (stereo not drawn) [Example 50, [2′R-(2′R*,3′S*)]-N-t-Butyl-2-[2′-hydroxy-3′-naphth-2-ylthiomethyl-4′-aza-5′-oxo-5′-(3″-aminophenyl)pentyl] benzamide]	101 to 102 °C	222 nM
Cc1c(C(=O)NC(CSc2ccc3ccccc3c2)C(O)Cc2ccccc2C(=O)NC(C)(C)C)cccc1[N+](=O)[O-] (stereo not drawn) [Example 67, [2′R-(2′R*,3′S*)]-N-t-Butyl-2-[2′-hydroxy-3′-naphth-2-hiomethyl-4′-aza-5′-oxo-5′-(2″-methyl-3″-nitrophenyl)pentyl] benzamide]	80 to 81 °C	927 nM
CC(C)(C)NC(=O)c1c(CC(O)C(CSc2ccc3ccccc3c2)NC(=O)c2cccc(N)c2Cl)ccc2ccccc12 (stereo not drawn) [Example 49, [2′R-(2′R*,3′S*)]-N-t-Butyl-2-[2′-hydroxy-3′-naphth-2-ylthiomethyl-4′-aza-5′-oxo-5′-(2″-chloro-3″-aminophenyl)pentyl]-1-naphthylamide]	110 to 112 °C	137 nM
CC(C)(C)NC(=O)c1ccccc1C[C@@H](O)[C@@H](CSc1ccc2ccccc2c1)NC(=O)c1ccnc2ccccc12 [Example 66, [2′R-(2′R*,3′S*)]-N-t-Butyl-2-[2′-hydroxy-3′-naphth-2-ylthiomethyl-4′-aza-5′-oxo-5′-(quinolin-4″-yl)pentyl] benzamide]	89 to 92 °C	474 nM
CC(C)(C)NC(=O)c1ccccc1CC(O)C(CSc1ccc2ccccc2c1)NC(=O)c1ccc(N)cc1Cl (stereo not drawn) [Example 71, [2′R-(2′R*,3′S*)]-N-t-Butyl-2-[2′-hydroxy-3′-naphth-2-ylthiomethyl-4′-aza-5′-oxo-5′-(2″-chloro-4″-aminophenyl)pentyl] benzamide]	102 to 104 °C	312 nM
CC(C)(C)NC(=O)c1ccccc1CC(O)C(CSc1ccc2ccccc2c1)NC(=O)c1cc(N)ccc1Cl (stereo not drawn) [Example 55, [2′R-(2′R*,3′S*)]-N-t-Butyl-2-[2′-hydroxy-3′-naphth-2-ylthiomethyl-4′-aza-5′-oxo-5′-(2″-chloro-5″-aminophenyl)pentyl] benzamide]	109 to 110 °C	194 nM
Cc1c(C(=O)NC(CSc2ccc3ccccc3c2)C(O)Cc2ccccc2C(=O)NC(C)(C)C)ccc(O)c1O (stereo not drawn) [Example 70, [2′R-(2′R*,3′S*)]-N-t-Butyl-2-[2′-hydroxy-3′-naphth-2-ylthiomethyl-4′-aza-5′-oxo-5′-(2″-methyl-3″,4″-dihydroxyphenyl)pentyl] benzamide]	121 to 123 °C	183 nM
CC(C)(C)NC(=O)c1ccccc1C[C@@H](O)[C@@H](CSc1ccc2ccccc2c1)NC(=O)c1cccc2ccccc12 [Example 61, [2′R-(2′R*,3′S*)]-N-t-Butyl-2-[2′-hydroxy-3′-naphth-2-ylthiomethyl-4′-aza-5′-oxo-5′-(naphth-1″-yl)pentyl] benzamide]	92 to 95 °C	2770 nM

Source: patent US20030216569A1, “Method of making HIV protease inhibitors” (priority 1993, published 2003)
